The NIST ThermoML archive (doi:10.1016/j.fluid.2010.08.022)

Settings: 101.33 kPa, Liquid crystal of unknown type; for mass density: Vibrating tube method; for speed of sound: Sing-around technique in a fixed-path interferometer

CCCCCCCC/C=C\CCCCCCCC(=O)O.NCCO [2-hydroxyethylammonium oleate]
Settings	mass density [kg/m3]	speed of sound [m/s]
310.91 K	928.395	–
311.16 K	928.237	1466.6
311.41 K	928.077	1465.8
311.66 K	927.918	1465
311.91 K	927.76	1464.2
312.16 K	927.599	1463.4
312.41 K	927.441	1462.6
312.66 K	927.283	1461.8
312.91 K	927.122	1461
313.16 K	926.962	1460.2
313.41 K	926.805	1459.4
313.66 K	926.647	1458.6
313.91 K	926.486	1457.8
314.16 K	926.328	1457
314.41 K	926.167	1456.2
314.66 K	926.009	1455.4
314.91 K	925.851	1454.6
315.16 K	925.69	1453.8
315.41 K	925.531	1453
315.66 K	925.372	1452.2
315.91 K	925.214	1451.4
316.16 K	925.054	1450.6
316.41 K	924.895	1449.8
316.66 K	924.735	1449
316.91 K	924.575	1448.2
317.16 K	924.416	1447.4
317.41 K	924.257	1446.6
317.66 K	924.098	1445.8
317.91 K	923.938	1445
318.16 K	923.779	1444.2
318.4 K	923.621	1443.4
318.66 K	923.461	1442.6
318.91 K	923.302	1441.8
319.16 K	923.142	1441
319.41 K	922.982	1440.2
319.65 K	922.821	1439.4
319.91 K	922.663	1438.6
320.16 K	922.502	1437.8
320.41 K	922.343	1437
320.66 K	922.184	1436.2
320.91 K	922.026	1435.5
321.16 K	921.864	1434.7
321.41 K	921.705	1433.9
321.66 K	921.546	1433.1
321.91 K	921.386	1432.3
322.15 K	921.225	1431.5
322.41 K	921.066	1430.8
322.66 K	920.906	1430
322.91 K	920.746	1429.2
323.16 K	920.588	1428.4
323.41 K	920.427	1427.6
323.66 K	920.268	1426.8
323.91 K	920.108	1426
324.16 K	919.948	1425.3
324.41 K	919.788	1424.5
324.66 K	919.629	1423.7
324.91 K	919.469	1422.9
325.16 K	919.309	1422.1
325.41 K	919.149	1421.3
325.66 K	918.989	1420.5
325.91 K	918.828	1419.7
326.16 K	918.669	1419
326.41 K	918.508	1418.2
326.66 K	918.347	1417.4
326.91 K	918.187	1416.6
327.16 K	918.029	1415.8
327.41 K	–	1415.1
